Data on one molecule can be found in paper PMC2812670 (Experimental neurology, 2009).

Each structure is given as a SMILES string.

In the test the target is T1, MAO-A (Mus musculus, UniProt Q64133).
T1 sequence (Q64133 1-526): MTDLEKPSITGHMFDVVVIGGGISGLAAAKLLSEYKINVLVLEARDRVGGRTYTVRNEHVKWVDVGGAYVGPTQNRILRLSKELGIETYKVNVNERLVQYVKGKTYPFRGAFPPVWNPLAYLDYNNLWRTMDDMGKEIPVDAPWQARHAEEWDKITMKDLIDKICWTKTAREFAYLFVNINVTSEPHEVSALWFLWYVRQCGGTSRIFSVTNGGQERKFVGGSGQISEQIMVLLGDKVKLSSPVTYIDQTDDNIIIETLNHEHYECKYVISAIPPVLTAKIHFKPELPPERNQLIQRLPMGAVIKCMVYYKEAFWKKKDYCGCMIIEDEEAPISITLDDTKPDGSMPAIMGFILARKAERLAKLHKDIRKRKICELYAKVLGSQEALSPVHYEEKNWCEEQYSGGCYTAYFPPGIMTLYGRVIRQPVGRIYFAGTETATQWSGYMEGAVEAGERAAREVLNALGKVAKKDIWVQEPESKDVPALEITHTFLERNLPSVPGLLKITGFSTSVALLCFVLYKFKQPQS
The test is described as follows: Amplex Red MAO-A activity assay. Type of test: biochemical.

For `C#CCN(C)CCCOc1ccc(Cl)cc1Cl` [clorgyline], the “Amplex Red MAO-A activity assay (tyramine substrate) in mouse brain homogenates,” value is 1 µM.
